Results from US11629118B2, “Formulations with improved stability” (INSPIRNA, INC., priority 2017, dated 2023).
Converted amounts (≈) assume the structure as drawn.

Columns and labels:
[1] = Further solubility study in Maisine 35-1:Gelucire 44/14:Lauroglycol 90 mixtures; conditions: 40-80% (w/w) Maisine 35-1; 20-40% Gelucire 44/14; 0-20% Lauroglycol 90
Method: (§1) A further solubility study of Compound (II) was conducted using lipid excipients and surfactants. Maisine 35-1 (glycerol linoleates):Gelucire 44/14 (lauroyl macrogol-32 glycerides):Lauroglycol 90 (propylene glycol monolaurate) mixtures were tested to explore the optimal combination. The following ranges of each substance were tested: (1) 40-80% (w/w) Maisine 35-1; (2) 20-40% (w/w) Gelucire 44/14; and (3) 0-20% (w/w) Lauroglycol 90.

[2] = Solubility study of Compound (II) in lipid excipients and surfactants; assay type: physicochemical; conditions: for solubility: thermodynamic from solid
Method: Compound (II) HCl and Compound (II) free base was weighed into vials and the appropriate amount of excipient was added to achieve the desired concentration. Heating and sonication was used, if necessary, to achieve clear solutions. Limits of solubility of Compound (II) free base and Compound (II) HCl (amorphous form) are noted in Table 1.

physchem = conditions: oil or lipid
Method: as §1

[3] = Binary stressed-stability / compatibility study with excipients; assay type: physicochemical; conditions: in contact with Maisine 35-1 and Gelucire 44/14 (70:30 w/w)
Excerpt: The compatibility of Compound ([…]) with the following solubilizing/emulsifying excipients: Maisine 35-1; Gelucire 44/14; sodium oleate; sodium stearate; vitamin E TPGS; lysine; and sodium EDTA.

C[C@H](CCOc1cccc(CC(=O)O)c1)N(Cc1cccc(C(F)(F)F)c1Cl)CC(c1ccccc1)c1ccccc1.Cl [Compound (II) HCl salt]
Solubility in Maisine 35-1:Gelucire 44/14:Lauroglycol 90 mixtures [1]: 150 to 200 mg/mL
Limit of solubility in Capmul MCM ([2]; excipient Capmul MCM): 50 mg/mL
Limit of solubility in Capryol 90 ([2]; excipient Capryol 90): 150 mg/mL
Limit of solubility in Capryol PGMC ([2]; excipient Capryol PGMC): 150 mg/mL
Limit of solubility in Cremophor EL ([2]; excipient Cremophor EL): 150 mg/mL
Limit of solubility in Cremophor RH-40 ([2]; excipient Cremophor RH-40): 150 mg/mL
Limit of solubility in Ethanol ([2]; excipient Ethanol): 200 mg/mL
Limit of solubility in Gelucire 44/14 ([2]; excipient Gelucire 44/14): 100 mg/mL
Limit of solubility in Gelucire 50/13 ([2]; excipient Gelucire 50/13): 50 mg/mL
Limit of solubility in Labrafil M 1944 CS ([2]; excipient Labrafil M 1944 CS): 25 mg/mL
Limit of solubility in Labrafil M 2125 CS ([2]; excipient Labrafil M 2125 CS): 25 mg/mL
Limit of solubility in Labrafil M 2130 CS ([2]; excipient Labrafil M 2130 CS): 25 mg/mL
Limit of solubility in Labrasol ([2]; excipient Labrasol): 150 mg/mL
Limit of solubility in Lauroglycol 90 ([2]; excipient Lauroglycol 90): 150 mg/mL
Limit of solubility in Lauroglycol FCC ([2]; excipient Lauroglycol FCC): 100 mg/mL
Limit of solubility in Maisine 35-1 ([2]; excipient Maisine 35-1): 150 mg/mL
Limit of solubility in PEG-200 ([2]; excipient PEG-200): 200 mg/mL
Limit of solubility in PEG-300 ([2]; excipient PEG-300): 200 mg/mL
Limit of solubility in PEG-400 ([2]; excipient PEG-400): 200 mg/mL
Limit of solubility in Peceol ([2]; excipient Peceol): 150 mg/mL
Limit of solubility in Phosal 50-PG ([2]; excipient Phosal 50-PG): 200 mg/mL
Limit of solubility in Phosal 53 MCT ([2]; excipient Phosal 53 MCT): 150 mg/mL
Limit of solubility in Plurol Oleique CC 497 ([2]; excipient Plurol Oleique CC 497): 50 mg/mL
Limit of solubility in Propylene Glycol ([2]; excipient Propylene Glycol): 200 mg/mL
Limit of solubility in Transcutol ([2]; excipient Transcutol): 150 mg/mL
Limit of solubility in Tween-20 ([2]; excipient Tween-20): 200 mg/mL
Limit of solubility in Tween-80 ([2]; excipient Tween-80): 200 mg/mL
Limit of solubility in VitE-TPGS ([2]; excipient VitE-TPGS): 150 mg/mL

C[C@H](CCOc1cccc(CC(=O)O)c1)N(Cc1cccc(C(F)(F)F)c1Cl)CC(c1ccccc1)c1ccccc1 [Compound (II), 2-{3-[(3R)-3-({[2-chloro-3-(trifluoromethyl)phenyl]methyl}(2,2-diphenylethyl)amino)butoxy]phenyl}acetic acid]
solubility (physchem): > 250 mg/mL
solubility ([2]; aqueous with cosolvent or surfactant or cyclodextrin, excipient Tween-20, read-out: Limit of solubility in Tween-20): > 200 mg/mL
solubility ([2]; aqueous with cosolvent or surfactant or cyclodextrin, excipient Tween-80, read-out: Limit of solubility in Tween-80): > 200 mg/mL
solubility ([2]; aqueous with cosolvent or surfactant or cyclodextrin, excipient VitE-TPGS, read-out: Limit of solubility in VitE-TPGS): > 200 mg/mL
solubility ([2]; oil or lipid, excipient Capryol 90, read-out: Limit of solubility in Capryol 90): > 200 mg/mL
solubility ([2]; oil or lipid, excipient Capryol PGMC, read-out: Limit of solubility in Capryol PGMC): > 200 mg/mL
solubility ([2]; oil or lipid, excipient Cremophor EL, read-out: Limit of solubility in Cremophor EL): > 200 mg/mL
solubility ([2]; oil or lipid, excipient Cremophor RH-40, read-out: Limit of solubility in Cremophor RH-40): > 200 mg/mL
solubility ([2]; oil or lipid, excipient Gelucire 44/14, read-out: Limit of solubility in Gelucire 44/14): > 200 mg/mL
solubility ([2]; oil or lipid, excipient Gelucire 50/13, read-out: Limit of solubility in Gelucire 50/13): 150 mg/mL (≈ 252 mM)
solubility ([2]; oil or lipid, excipient Labrafac Lipo WL 1349, heating and sonication if necessary, read-out: Limit of solubility in Labrafac Lipo WL 1349): > 200 mg/mL
solubility ([2]; oil or lipid, excipient Labrafac PG, read-out: Limit of solubility in Labrafac PG): > 200 mg/mL
solubility ([2]; oil or lipid, excipient Labrafil M 1944 CS, read-out: Limit of solubility in Labrafil M 1944 CS): > 200 mg/mL
solubility ([2]; oil or lipid, excipient Labrafil M 2125 CS, read-out: Limit of solubility in Labrafil M 2125 CS): > 200 mg/mL
solubility ([2]; oil or lipid, excipient Labrafil M 2130 CS, read-out: Limit of solubility in Labrafil M 2130 CS): > 200 mg/mL
solubility ([2]; oil or lipid, excipient Labrasol, read-out: Limit of solubility in Labrasol): > 200 mg/mL
solubility ([2]; oil or lipid, excipient Lauroglycol 90, read-out: Limit of solubility in Lauroglycol 90): > 200 mg/mL
solubility ([2]; oil or lipid, excipient Lauroglycol FCC, read-out: Limit of solubility in Lauroglycol FCC): > 200 mg/mL
solubility ([2]; oil or lipid, excipient Maisine 35-1, read-out: Limit of solubility in Maisine 35-1): > 200 mg/mL
solubility ([2]; oil or lipid, excipient Peceol, read-out: Limit of solubility in Peceol): > 200 mg/mL
solubility ([2]; oil or lipid, excipient Phosal 50-PG, read-out: Limit of solubility in Phosal 50-PG): > 200 mg/mL
solubility ([2]; oil or lipid, excipient Phosal 53 MCT, read-out: Limit of solubility in Phosal 53 MCT): > 200 mg/mL
solubility ([2]; oil or lipid, excipient Plurol Oleique CC 497, read-out: Limit of solubility in Plurol Oleique CC 497): > 200 mg/mL
solubility ([2]; organic solvent or mixture, excipient Ethanol, read-out: Limit of solubility in Ethanol): > 200 mg/mL
solubility ([2]; organic solvent or mixture, excipient PEG-200, read-out: Limit of solubility in PEG-200): > 200 mg/mL
solubility ([2]; organic solvent or mixture, excipient PEG-300, read-out: Limit of solubility in PEG-300): > 200 mg/mL
solubility ([2]; organic solvent or mixture, excipient PEG-400, read-out: Limit of solubility in PEG-400): > 200 mg/mL
solubility ([2]; organic solvent or mixture, excipient Propylene Glycol, read-out: Limit of solubility in Propylene Glycol): > 200 mg/mL
solubility ([2]; organic solvent or mixture, excipient Transcutol, read-out: Limit of solubility in Transcutol): > 200 mg/mL
Degradation ([3]; after 15 days of storage at −20° C.): No significant degradation
Short-term stability ([3]; room temperature (about 20° C.) for 8 days): acceptable
Degradation ([3]; room temperature, by 15 days): approximately 9%
